# Values quoted from earlier work, collected in US20160324856A1, “USE OF SGC STIMULATORS FOR THE TREATMENT OF NEUROMUSCULAR DISORDERS” (IRONWOOD PHARMACEUTICALS, INC., priority 2014, published 2016).
# Legend:
# [1] = system: dystrophin-deficient zebrafish
smiles,measurement,setting,value
CCCc1nn(C)c2c(=O)[nH]c(-c3cc(S(=O)(=O)N4CCN(C)CC4)ccc3OCC)nc12 [sildenafil],cardiac dynamics,mdx mouse; mdx mice,improve cardiac dynamics
same,"muscle ischemia, injury and fatigue","mdx mouse; mdx mouse, after a brief bout of exercise","alleviate muscle ischemia, as well as injury and fatigue"
same,dystrophic skeletal muscle and survival,[1],rescue dystrophic skeletal muscle and prolong survival
